Test results from PubChem BioAssay AID1671331.

Target: Serine/threonine-protein kinase Nek6 (Homo sapiens) (UniProt Q9HC98)
Assay: NEK6 kinase inhibitors, dose response, biochemical, Z'-LYTE FRET, direct format, recombinant human (AID 1671331)
Details: Z'-LYTE FRET kinase activity

Serine/threonine-protein kinase Nek6 (Homo sapiens), sequence (Q9HC98 whole entry, looked up): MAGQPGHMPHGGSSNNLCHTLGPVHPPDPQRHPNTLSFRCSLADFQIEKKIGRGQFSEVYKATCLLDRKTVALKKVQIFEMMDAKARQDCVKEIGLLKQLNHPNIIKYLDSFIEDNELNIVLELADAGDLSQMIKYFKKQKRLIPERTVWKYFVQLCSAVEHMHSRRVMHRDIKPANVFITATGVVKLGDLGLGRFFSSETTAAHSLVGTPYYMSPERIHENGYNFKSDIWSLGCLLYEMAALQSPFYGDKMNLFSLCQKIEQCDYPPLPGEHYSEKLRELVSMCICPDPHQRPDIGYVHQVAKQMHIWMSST

CN1C(=O)C2(Cc3cn(C45CC67SSC(CO)(C(=O)N6C4Nc4ccccc45)N(C)C7=O)c4ccccc34)SSC1(CO)C(=O)N2C (stereo unspecified)
IC50: 59 nM
